Assay results: patent USRE39198E1, “Heteroarylpiperidines, pyrrolidines and piperazines and their use as antipsychotics and analgesics” (Aventis Pharmaceuticals Inc., priority 1989, dated 2006)

SMILES | melting point
COc1cc(C(C)=O)ccc1OCCCN1CCC(c2nsc3ccccc23)CC1 [Example 10, 1-[4-[3-[4-(1,2-Benzisothiazol-3-yl)-1-piperidinyl]-propoxy]-3-methoxyphenyl]ethanone] | 93 to 96 °C
Fc1ccc2c(C3CCN(CCCOc4ccc5[nH]ccc5c4)CC3)noc2c1 [Example 140, 6-Fluoro-3-[1-[3-[(1H-indol-5-yl)oxy]propyl]-4-piperidinyl]-1,2-benzisoxazole] | 118 to 121 °C
COc1cc(C(C)=O)ccc1OCCN1CCN(c2nsc3ccccc23)CC1 [Example 39, 1-[4-[2-[4-(1,2-Benzisothiazol-3-yl)-1-piperazinyl]ethoxy]-3-methoxyphenyl]ethanone] | 98 to 100 °C
O=C1c2cccc(F)c2C(=O)N1CCN1CCC(c2noc3cc(F)ccc23)CC1 [Example 155, N-[2-[4-(6-Fluoro-1,2-benzisoxazol-3-yl)-1-piperidinyl]ethyl]-3-fluorophthalimide] | 142 to 143 °C
COc1cc(C(C)O)ccc1OCCCN1CCC(c2nsc3cc(F)ccc23)CC1 (stereo not drawn) [Example 145, 4-[3-[4-(6-Fluoro-1,2-benzisothiazol-3-yl)-1-piperidinyl]propoxy]-3-methoxy-alpha-methylbenzenemethanol] | 113 to 115 °C
COc1cc(C(C)=O)ccc1OCCCN1CCC(c2n[nH]c3cc(F)ccc23)CC1 [Example 28, 1-[4-[3-[4-(6-Fluoro-1H-indazol-3-yl)-1-piperidinyl]-propoxy]-3-methoxyphenyl]ethanone] | 202 to 204 °C
COc1cc(C(C)=O)ccc1OCCCN1CCN(c2n[nH]c3cc(F)ccc23)CC1 [Example 12, 1-[4-[3-[4-(6-Fluoro-1H-indazol-3-yl)-1-piperazinyl]-propoxy]-3-methoxyphenyl]ethanone] | 135 to 137 °C
O=C1c2c(Cl)ccc(Cl)c2C(=O)N1CCN1CCC(c2noc3cc(F)ccc23)CC1 [Example 153, N-[2-[4-(6-Fluoro-1,2-benzisoxazol-3-yl)-1-piperidinyl]ethyl]-3,6-dichlorophthalimide] | 163 to 164 °C
O=C1c2cc(Cl)c(Cl)cc2C(=O)N1CCN1CCC(c2noc3cc(F)ccc23)CC1 [Example 151, N-[2-[4-(6-Fluoro-1,2-benzisoxazol-3-yl)-1-piperidinyl]ethyl]-4,5-dichlorophthalimide] | 132 to 134 °C
CC(=O)c1ccc(OCCCN2CCC(c3nsc4cc(F)ccc34)CC2)c(O)c1 [Example 144, 1-[4-[3-[4-(6-Fluoro-1,2-benzisothiazol-3-yl)-1-piperidinyl]propoxy]-3-hydroxyphenyl]ethanone] | 135 to 137 °C
CCOC(C)c1ccc(OCCCN2CCC(c3noc4cc(F)ccc34)CC2)c(OC)c1.Cl (centres unmarked) | 139 to 141 °C
COc1cc(C(C)=O)ccc1OCCCCN1CCC(c2nsc3ccccc23)CC1 [Example 46, 1-[4-[4-[4-(1,2-Benzisothiazol-3-yl)-1-piperidinyl]butoxy]-3-methoxyphenyl]ethanone] | 78 to 80 °C
COc1cc(C(C)=O)ccc1OCCCN1CCC(c2n[nH]c3ccccc23)CC1 [Example 14, 1-[4-[3-[4-(1H-Indazol-3-yl)-1-piperidinyl]propoxy]-3-methoxyphenyl]ethanone] | 171 to 173 °C
COc1cc(C(C)=O)ccc1OCCCCN1CCN(c2n[nH]c3cc(Cl)ccc23)CC1 [Example 36, 1-[4-[4-[4-(6-Chloro-1H-indazol-3-yl)-1-piperazinyl]butoxy]-3-methoxyphenyl]ethanone] | 189 to 191 °C

The next lines start with the values.

melting point | SMILES
231 to 234 °C | Cl.Cl.NCCCN1CCC(c2noc3cc(F)ccc23)CC1 [1-(3-Aminopropyl)-4-(6-fluoro-1,2-benzisoxazol-3-yl)-piperidine dihydrochloride]
116 to 118 °C | CC(=O)OCCNCCN1CCC(c2noc3cc(F)ccc23)CC1.O=C(O)/C=C/C(=O)O
154 to 155 °C | CC(=O)OCCN1CCC(c2noc3cc(F)ccc23)CC1.O=C(O)/C=C/C(=O)O
144 to 145 °C | CC(C)(CO)CN1CCC(c2noc3cc(F)ccc23)CC1.O=C(O)/C=C/C(=O)O
208 to 210 °C | CC(=O)c1ccc(O)c(OC/C=C/CN2CCC(c3noc4cc(F)ccc34)CC2)c1.Cl
109 to 110 °C | CCCCCCCCCC(=O)OCCCCN1CCC(c2noc3cc(F)ccc23)CC1.O=C(O)/C=C/C(=O)O [4-[4-(6-Fluoro-1,2-benzisoxazol-3-yl)-1-piperidinyl]butyl decanoate fumarate]
144 to 146 °C | O=C1c2ccccc2C(=O)N1CCCCN1CCC(c2noc3cc(F)ccc23)CC1 [Example 98, N-[4-[4-(6-Fluoro-1,2-benzisoxazol-3-yl)-1-piperidinyl]butyl]phthalimide]
161 to 162 °C | Fc1ccc2c(C3CCN(CCC4OCCCO4)CC3)noc2c1.O=C(O)/C=C/C(=O)O
131 to 132 °C | O=C(O)/C=C/C(=O)O.OCCCCN1CCC(c2noc3cc(F)ccc23)CC1
150 to 152 °C | CCc1ccc(OCCCN2CCC(c3noc4cc(F)ccc34)CC2)cc1OC.Cl
229 to 231 °C | Cl.O=C1[C@H]2CCCC[C@H]2C(=O)N1CCCCN1CCC(c2noc3cc(F)ccc23)CC1
135 to 136 °C | CCOC(=O)CCN1CCC(c2noc3cc(F)ccc23)CC1.O=C(O)/C=C/C(=O)O
114 to 115 °C | C[C@@H](CO)CN1CCC(c2noc3cc(F)ccc23)CC1.O=C(O)/C=C/C(=O)O
57 to 59 °C | COc1cc(C(C)=O)ccc1OC/C=C\CN1CCC(c2noc3cc(F)ccc23)CC1 [(Z)-1-[4-[[4-[4-(6-Fluoro-1,2-benzisoxazol-3-yl)-1-piperidinyl]-2-butenyl]oxy]-3-methoxyphenyl]ethanone]
148 to 149 °C | O=C1c2ccccc2C(=O)N1CCN1CCC(c2noc3cc(F)ccc23)CC1 [N-[2-[4-(6-Fluoro-1,2-benzisoxazol-3-yl)-1-piperidinyl]ethyl]phthalimide]
140 to 142 °C | OCCCN1CCC(c2noc3cc(F)ccc23)CC1 [6-Fluoro-3-[1-(3-hydroxypropyl)-4-piperidinyl]-1,2-benzisoxazole]
234 to 237 °C | Cl.Cl.NCCCCN1CCC(c2noc3cc(F)ccc23)CC1
142 to 143 °C | CC(=O)OCCCCN1CCC(c2noc3cc(F)ccc23)CC1.O=C(O)/C=C/C(=O)O
98 to 100 °C | COC(C)c1ccc(OCCCN2CCC(c3noc4cc(F)ccc34)CC2)c(O)c1 (centres unmarked) [Example 139, 3-[1-[3-[4-(1-Methoxyethyl)-2-hydroxyphenoxyl]propyl]-4-piperidinyl]-6-fluoro-1,2-benzisoxazole]
115 to 117 °C | Nc1cccc(OCCCN2CCC(c3noc4cc(F)ccc34)CC2)c1 [Example 71, 3-[3-[4-(6-Fluoro-1,2-benzisoxazol-3-yl)-1-piperidinyl]propoxy]aniline]
91 to 93 °C | COc1cc(C(C)=O)ccc1OC/C=C/CN1CCC(c2noc3cc(F)ccc23)CC1 [Example 81, (E)-1-[4-[[4-[4-(6-Fluoro-1,2-benzisoxazol-3-yl)-1-piperidinyl]-2-butenyl]oxy]-3-methoxyphenyl]ethanone]
